Measured values as given in ChEMBL document CHEMBL2062364, “Discovery and optimization of new benzimidazole- and benzoxazole-pyrimidone selective PI3Kβ inhibitors for the treatment of phosphatase and TENsin homologue (PTEN)-deficient cancers” (J Med Chem, 2012).
Values after ≈ are worked out from the molar mass of the structure shown.

Assays:
[1] = biological target: Phosphatidylinositol 4,5-bisphosphate 3-kinase catalytic subunit alpha isoform (Homo sapiens, UniProt P42336); assay: Inhibition of N-terminus poly-His tagged human PI3Kalpha expressed in baculovirus infected insect sf9 cells coexpressing p85alpha using PI(4,5)P2 as substrate preincubated with compound for 15 mins measured after 10 mins by HTRF assay
[2] = biological target: Phosphatidylinositol 4,5-bisphosphate 3-kinase catalytic subunit gamma isoform (Homo sapiens, UniProt P48736); assay: Inhibition of N-terminus poly-His tagged human PI3Kgamma expressed in baculovirus infected insect sf9 cells using PI(4,5)P2 as substrate preincubated with compound for 15 mins measured after 10 mins by HTRF assay
[3] = biological target: T1, Phosphatidylinositol 4,5-bisphosphate 3-kinase catalytic subunit delta isoform (Homo sapiens, UniProt O00329); assay: Inhibition of poly-His tagged human PI3Kdelta expressed in baculovirus infected insect sf9 cells coexpressing p85alpha using PI(4,5)P2 as substrate preincubated with compound for 15 mins measured after 10 mins by HTRF assay
T1 sequence (O00329 whole entry): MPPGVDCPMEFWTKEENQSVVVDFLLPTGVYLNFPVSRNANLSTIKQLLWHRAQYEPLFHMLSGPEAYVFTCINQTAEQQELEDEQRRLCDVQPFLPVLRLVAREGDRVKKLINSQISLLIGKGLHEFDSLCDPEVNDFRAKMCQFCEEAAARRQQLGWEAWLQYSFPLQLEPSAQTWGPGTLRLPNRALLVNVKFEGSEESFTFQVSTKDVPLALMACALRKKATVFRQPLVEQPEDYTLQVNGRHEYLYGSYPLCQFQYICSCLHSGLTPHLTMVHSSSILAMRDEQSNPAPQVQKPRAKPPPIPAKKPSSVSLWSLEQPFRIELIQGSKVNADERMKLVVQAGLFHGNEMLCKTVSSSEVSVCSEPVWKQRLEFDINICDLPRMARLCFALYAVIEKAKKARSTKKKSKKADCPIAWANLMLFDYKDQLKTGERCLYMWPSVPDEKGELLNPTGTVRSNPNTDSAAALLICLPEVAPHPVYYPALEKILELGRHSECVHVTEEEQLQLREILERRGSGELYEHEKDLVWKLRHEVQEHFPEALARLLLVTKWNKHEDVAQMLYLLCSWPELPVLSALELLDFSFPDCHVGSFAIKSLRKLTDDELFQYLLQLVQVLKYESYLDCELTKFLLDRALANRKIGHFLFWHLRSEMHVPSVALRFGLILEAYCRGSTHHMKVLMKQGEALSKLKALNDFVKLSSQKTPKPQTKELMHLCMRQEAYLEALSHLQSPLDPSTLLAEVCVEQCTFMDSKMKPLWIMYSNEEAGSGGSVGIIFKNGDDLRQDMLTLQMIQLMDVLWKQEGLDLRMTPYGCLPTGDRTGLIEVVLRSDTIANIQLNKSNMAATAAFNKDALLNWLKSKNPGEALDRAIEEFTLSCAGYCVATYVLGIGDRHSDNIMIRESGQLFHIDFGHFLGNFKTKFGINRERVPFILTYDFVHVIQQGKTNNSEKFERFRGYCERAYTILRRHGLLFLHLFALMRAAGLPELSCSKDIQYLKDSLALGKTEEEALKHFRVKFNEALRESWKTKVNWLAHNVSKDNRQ

[4] = biological target: T2, Phosphatidylinositol 4,5-bisphosphate 3-kinase catalytic subunit beta isoform (Homo sapiens, UniProt P42338); assay: Inhibition of N-terminus poly-His tagged human PI3Kbeta expressed in baculovirus infected insect […] cells coexpressing p85alpha using PI(4,5)P2 as substrate preincubated with compound for 15 mins measured after 10 mins by HTRF assay
[5] = biological target: T2, Phosphatidylinositol 4,5-bisphosphate 3-kinase catalytic subunit beta isoform; assay: Inhibition of human PI3Kbeta-mediated Akt phosphorylation at Ser473 residue expressed in PTEN-deficient human PC3 cells by chemiluminescence assay; format: cell-based, PC-3
[6] = biological target: Serine/threonine-protein kinase mTOR (Homo sapiens, UniProt P42345); assay: Inhibition of mTOR
Cytochrome P450 3A4 = Cytochrome P450 3A4 (Homo sapiens, UniProt P08684); assay: Inhibition of human recombinant CPY3A4
[7] = Drug metabolism in human liver microsomes; format: ADME, Microsome; details: read-out: Drug metabolism
[8] = Drug metabolism in mouse liver microsomes; format: ADME, Microsome; details: read-out: Drug metabolism
[9] = Thermodynamic solubility of the compound in phosphate buffer at pH 7.4 after 16 hrs by HPLC analysis; format: physicochemical; details: read-out: Therm_solubility
[10] = Apparent permeability of the compound across human Caco2 cells; format: ADME, cell-based; details: Caco-2

T2 sequence (P42338 whole entry, canonical isoform): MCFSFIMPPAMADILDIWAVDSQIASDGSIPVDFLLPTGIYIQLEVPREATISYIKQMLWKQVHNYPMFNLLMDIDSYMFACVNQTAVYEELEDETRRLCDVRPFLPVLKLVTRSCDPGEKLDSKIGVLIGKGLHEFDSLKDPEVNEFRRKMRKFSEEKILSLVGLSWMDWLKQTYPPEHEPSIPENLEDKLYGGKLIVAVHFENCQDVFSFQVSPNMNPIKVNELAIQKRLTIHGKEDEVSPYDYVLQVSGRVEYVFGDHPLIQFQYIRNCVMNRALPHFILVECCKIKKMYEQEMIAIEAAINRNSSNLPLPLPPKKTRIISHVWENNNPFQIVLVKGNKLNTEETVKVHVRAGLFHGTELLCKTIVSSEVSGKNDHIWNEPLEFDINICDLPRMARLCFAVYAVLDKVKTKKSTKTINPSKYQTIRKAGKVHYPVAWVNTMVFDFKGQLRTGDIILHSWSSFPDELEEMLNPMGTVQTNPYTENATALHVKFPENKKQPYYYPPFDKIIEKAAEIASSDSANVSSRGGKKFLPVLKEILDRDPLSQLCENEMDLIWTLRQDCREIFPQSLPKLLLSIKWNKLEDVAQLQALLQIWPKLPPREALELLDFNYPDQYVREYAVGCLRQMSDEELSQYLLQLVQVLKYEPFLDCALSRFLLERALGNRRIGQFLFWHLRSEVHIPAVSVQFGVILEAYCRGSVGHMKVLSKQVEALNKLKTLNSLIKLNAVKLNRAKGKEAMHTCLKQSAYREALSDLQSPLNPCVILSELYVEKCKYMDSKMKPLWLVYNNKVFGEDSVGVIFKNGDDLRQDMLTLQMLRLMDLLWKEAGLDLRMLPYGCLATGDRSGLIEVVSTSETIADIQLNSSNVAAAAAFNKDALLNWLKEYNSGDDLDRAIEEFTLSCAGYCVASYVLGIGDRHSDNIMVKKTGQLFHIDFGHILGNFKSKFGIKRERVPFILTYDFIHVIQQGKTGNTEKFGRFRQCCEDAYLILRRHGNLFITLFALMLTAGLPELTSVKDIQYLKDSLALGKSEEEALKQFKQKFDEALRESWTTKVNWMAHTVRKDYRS
Cytochrome P450 3A4, sequence (P08684 whole entry): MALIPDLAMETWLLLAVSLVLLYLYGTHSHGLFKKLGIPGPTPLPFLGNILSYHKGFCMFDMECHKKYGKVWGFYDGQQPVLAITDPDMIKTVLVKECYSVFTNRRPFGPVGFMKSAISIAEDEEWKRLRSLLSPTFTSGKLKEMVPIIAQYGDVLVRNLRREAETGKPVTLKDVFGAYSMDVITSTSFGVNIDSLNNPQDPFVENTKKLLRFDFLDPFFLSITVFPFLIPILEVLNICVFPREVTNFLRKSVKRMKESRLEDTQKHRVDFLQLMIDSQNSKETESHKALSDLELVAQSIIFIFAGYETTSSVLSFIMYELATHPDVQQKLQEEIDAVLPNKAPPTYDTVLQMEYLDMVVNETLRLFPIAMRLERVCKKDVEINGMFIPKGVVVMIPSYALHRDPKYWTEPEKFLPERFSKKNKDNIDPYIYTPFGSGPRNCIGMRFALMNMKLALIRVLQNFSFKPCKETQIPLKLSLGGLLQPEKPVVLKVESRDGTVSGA
Phosphatidylinositol 4,5-bisphosphate 3-kinase catalytic subunit alpha isoform, sequence (P42336 whole entry, canonical isoform): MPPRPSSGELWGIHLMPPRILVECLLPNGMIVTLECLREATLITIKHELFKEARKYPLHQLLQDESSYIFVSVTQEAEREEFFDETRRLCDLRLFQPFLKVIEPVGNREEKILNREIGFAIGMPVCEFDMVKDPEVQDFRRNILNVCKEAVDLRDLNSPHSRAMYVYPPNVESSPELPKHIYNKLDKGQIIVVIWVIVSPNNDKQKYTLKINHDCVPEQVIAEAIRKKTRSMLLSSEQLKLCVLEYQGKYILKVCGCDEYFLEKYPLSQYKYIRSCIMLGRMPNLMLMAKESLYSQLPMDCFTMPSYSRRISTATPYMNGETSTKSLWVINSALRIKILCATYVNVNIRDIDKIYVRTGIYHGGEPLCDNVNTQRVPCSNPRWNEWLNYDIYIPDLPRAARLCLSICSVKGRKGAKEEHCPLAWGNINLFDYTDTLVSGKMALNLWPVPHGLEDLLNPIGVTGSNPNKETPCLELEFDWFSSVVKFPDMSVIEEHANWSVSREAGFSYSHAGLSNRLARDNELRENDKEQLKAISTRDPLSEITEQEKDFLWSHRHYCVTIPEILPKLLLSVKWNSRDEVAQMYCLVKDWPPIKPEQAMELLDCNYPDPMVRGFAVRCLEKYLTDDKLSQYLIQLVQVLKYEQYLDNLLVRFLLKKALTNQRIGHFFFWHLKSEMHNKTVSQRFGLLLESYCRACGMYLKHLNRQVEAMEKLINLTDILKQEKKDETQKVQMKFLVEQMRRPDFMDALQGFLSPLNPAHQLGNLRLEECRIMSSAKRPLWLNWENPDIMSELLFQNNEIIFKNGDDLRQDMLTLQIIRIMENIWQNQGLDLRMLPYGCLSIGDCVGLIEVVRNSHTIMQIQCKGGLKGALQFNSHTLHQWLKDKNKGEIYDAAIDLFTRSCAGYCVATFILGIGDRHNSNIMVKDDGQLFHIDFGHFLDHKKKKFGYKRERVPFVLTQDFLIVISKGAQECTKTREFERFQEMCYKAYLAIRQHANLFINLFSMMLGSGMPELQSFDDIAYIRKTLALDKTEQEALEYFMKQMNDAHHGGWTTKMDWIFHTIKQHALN
Phosphatidylinositol 4,5-bisphosphate 3-kinase catalytic subunit gamma isoform, sequence (P48736 whole entry, canonical isoform): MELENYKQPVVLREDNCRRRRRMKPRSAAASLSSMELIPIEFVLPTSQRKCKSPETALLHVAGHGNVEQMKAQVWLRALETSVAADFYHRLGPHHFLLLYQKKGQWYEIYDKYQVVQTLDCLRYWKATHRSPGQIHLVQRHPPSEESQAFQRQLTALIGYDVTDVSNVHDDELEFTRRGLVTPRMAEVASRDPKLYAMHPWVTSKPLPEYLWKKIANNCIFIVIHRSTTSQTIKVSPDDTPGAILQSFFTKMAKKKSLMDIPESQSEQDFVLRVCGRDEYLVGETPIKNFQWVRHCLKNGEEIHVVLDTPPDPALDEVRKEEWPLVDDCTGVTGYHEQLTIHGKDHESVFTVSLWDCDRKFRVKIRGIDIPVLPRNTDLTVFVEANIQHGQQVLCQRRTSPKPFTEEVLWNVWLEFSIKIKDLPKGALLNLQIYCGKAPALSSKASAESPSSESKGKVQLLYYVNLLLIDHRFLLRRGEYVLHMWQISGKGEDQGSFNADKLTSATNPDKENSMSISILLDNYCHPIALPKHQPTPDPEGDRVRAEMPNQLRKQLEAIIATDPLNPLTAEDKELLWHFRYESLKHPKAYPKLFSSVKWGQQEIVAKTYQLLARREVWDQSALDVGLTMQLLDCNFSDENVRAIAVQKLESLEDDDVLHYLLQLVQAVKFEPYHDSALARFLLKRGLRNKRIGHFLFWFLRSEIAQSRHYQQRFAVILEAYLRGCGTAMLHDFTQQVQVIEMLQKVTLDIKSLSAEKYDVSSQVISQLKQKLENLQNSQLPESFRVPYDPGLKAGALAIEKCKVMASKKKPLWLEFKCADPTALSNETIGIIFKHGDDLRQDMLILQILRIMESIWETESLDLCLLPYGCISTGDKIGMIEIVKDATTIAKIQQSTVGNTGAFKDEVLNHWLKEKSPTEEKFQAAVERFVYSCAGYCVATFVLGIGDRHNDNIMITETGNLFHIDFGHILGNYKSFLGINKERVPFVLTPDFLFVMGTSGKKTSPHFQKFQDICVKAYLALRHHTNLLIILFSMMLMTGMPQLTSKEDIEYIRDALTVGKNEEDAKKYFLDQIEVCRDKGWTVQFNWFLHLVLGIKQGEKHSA

Structure (SMILES)	IC50 [1] [nM]	IC50 [2] [nM]	IC50 [3] [nM]	IC50 [4] [nM]	IC50 [5] [nM]	IC50 [6] [nM]	IC50 (Cytochrome P450 3A4) [nM]	metabolised [7] [%]	metabolised [8] [%]	solubility thermodynamic at 16 h [9] [µM]	Papp [10] [×10⁻⁶ cm/s]
Cc1cc(F)ccc1Oc1cccc2c(=O)cc(N3CCOCC3)[nH]c12	> 10000	> 10000	166	32	72						
O=c1cc(N2CCOCC2)nc(Cc2nc3ccccc3[nH]2)[nH]1	> 10000	> 10000	2870	158	665	> 10000					
Cn1c(Cc2nc3cc(F)ccc3[nH]2)nc(N2CCOCC2)cc1=O	> 10000	> 10000	5720	739		> 10000					
Cn1c(Cc2nc(N3CCOCC3)cc(=O)[nH]2)nc2ccc(F)cc21	> 10000	> 10000	1060	290	289	> 10000					
O=c1cc(N2CCOCC2)nc(Cc2nc3cc(Br)ccc3[nH]2)[nH]1	5460	> 10000	442	91	85	> 10000	> 40000	75	27	3 (≈ 1.17 µg/mL)	
O=c1cc(N2CCOCC2)nc(Cc2nc3ccc(Cl)cc3[nH]2)[nH]1	5650	> 10000	247	99	63	> 10000	> 40000	78	35	3 (≈ 1.04 µg/mL)	
Cc1ccc2[nH]c(Cc3nc(N4CCOCC4)cc(=O)[nH]3)nc2c1	9880	> 10000	2210	450	140	> 10000					
COc1ccc2[nH]c(Cc3nc(N4CCOCC4)cc(=O)[nH]3)nc2c1	> 10000	> 10000	397	193	475	> 10000					
O=c1cc(N2CCOCC2)nc(Cc2nc3ccc(C(F)(F)F)cc3[nH]2)[nH]1	> 10000	> 10000	2850	386	961	> 10000					
O=c1cc(N2CCOCC2)nc(Cc2nc3cc(F)ccc3n2C2CC2)[nH]1	> 10000	> 10000	36	29	9	> 10000	> 40000	99	99		2.2
COCCn1c(Cc2nc(N3CCOCC3)cc(=O)[nH]2)nc2cc(F)ccc21	> 10000	> 10000	270	205	109	> 10000					
O=c1cc(N2CCOCC2)nc(Cc2nc3ccccc3n2C2CCCCC2)[nH]1	8400	> 10000	21	90	142	> 10000	> 40000	97	96		1.5
O=c1cc(N2CCOCC2)nc(Cc2nc3ccccc3n2Cc2ccccc2)[nH]1	5720	> 10000	84	111	105	> 10000					
Cn1c(Cc2nc(N3CCOCC3)cc(=O)[nH]2)nc2c(-c3ccccc3)cccc21	314	> 10000	274	57	26	> 10000	> 40000	41	40		11.4
Cn1c(Cc2nc(N3CCOCC3)cc(=O)[nH]2)nc2cc(-c3ccccc3)ccc21	> 10000	> 10000	6750	> 10000		> 10000					
